According to patent publication US20240270821A1, “GIP/GLP1/GCG TRI-RECEPTOR AGONISTS AND USES THEREOF” (priority 2023, published 2024):
Like-named read-outs stand apart in the source and are kept apart here. Starred links: 1 amine or outer side, 2 acyl side, 3 side chain; linkers in the order of their positions; H or OH if unused. Non-standard residues stand in square brackets, D forms with d. Groups on a side chain read outwards from the residue. No end group written: not given here. *: point of attachment. C18 diacid = O=C(O)CCCCCCCCCCCCCCCCC(=O)*; αMePhe(2-F) = C[C@](N)(Cc1ccccc1F)C(=O)O; γGlu = O=C(O)[C@H](CCC(=O)[*:2])N[*:1]; αMe4Pal = C[C@](N)(Cc1ccncc1)C(=O)O; αMeY = C[C@](N)(Cc1ccc(O)cc1)C(=O)O; 4Pal = N[C@@H](Cc1ccncc1)C(=O)O; αMeL = CC(C)C[C@](C)(N)C(=O)O; αMeS = C[C@](N)(CO)C(=O)O; Orn = NCCC[C@H](N)C(=O)O; AEEA = NCCOCCOCC(=O)O; Aib = CC(C)(N)C(=O)O

Legend:
hGLP-1R [1] = target: T1, hGLP-1R (Homo sapiens, UniProt P43220); experiment: Functional cAMP activation in the presence of 0.1% casein (no HSA); type: cell-based; conditions: read-out: Relative cAMP EC50, hGLP-1R;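 note: intracellular cAMP rise after 30 min at 37 °C read by HTRF, normalized between buffer only (0%) and maximal control ligand (100%), four-parameter variable-slope fit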
T1 sequence (P43220 24-463): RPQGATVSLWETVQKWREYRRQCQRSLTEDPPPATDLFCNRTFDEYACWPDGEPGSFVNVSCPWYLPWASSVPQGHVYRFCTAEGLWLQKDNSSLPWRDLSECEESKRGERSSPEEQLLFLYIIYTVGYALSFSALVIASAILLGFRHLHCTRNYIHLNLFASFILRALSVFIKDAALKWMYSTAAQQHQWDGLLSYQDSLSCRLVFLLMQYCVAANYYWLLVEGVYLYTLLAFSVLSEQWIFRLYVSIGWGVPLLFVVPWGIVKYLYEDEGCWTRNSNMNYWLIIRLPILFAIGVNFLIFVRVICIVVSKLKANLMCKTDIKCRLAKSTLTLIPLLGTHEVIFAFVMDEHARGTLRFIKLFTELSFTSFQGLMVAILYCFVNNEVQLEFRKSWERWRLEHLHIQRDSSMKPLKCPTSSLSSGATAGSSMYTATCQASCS

hGIPR [2] = target: T2, hGIPR (Homo sapiens, UniProt P48546); experiment: Functional cAMP activity in the presence of 1% HSA; type: cell-based; conditions: read-out: cAMP Rel EC50, hGIPR
T2 sequence (P48546 22-466): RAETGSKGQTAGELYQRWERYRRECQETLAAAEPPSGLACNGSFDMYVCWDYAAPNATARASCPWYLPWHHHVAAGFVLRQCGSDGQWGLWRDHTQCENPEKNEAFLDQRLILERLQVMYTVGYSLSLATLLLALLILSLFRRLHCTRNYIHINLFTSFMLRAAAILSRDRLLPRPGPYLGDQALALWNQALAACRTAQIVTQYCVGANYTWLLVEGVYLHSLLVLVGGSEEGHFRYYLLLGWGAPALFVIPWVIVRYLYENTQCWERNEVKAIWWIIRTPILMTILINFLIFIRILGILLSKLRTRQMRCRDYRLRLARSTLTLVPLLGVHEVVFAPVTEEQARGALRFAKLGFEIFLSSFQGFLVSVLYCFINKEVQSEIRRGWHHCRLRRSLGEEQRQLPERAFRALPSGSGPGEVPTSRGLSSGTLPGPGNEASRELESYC

hGIPR [3] = target: T2, hGIPR; experiment: Functional cAMP activation in the presence of 0.1% casein (no HSA); type: cell-based; conditions: read-out: Relative cAMP EC50, hGIPR;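 note: intracellular cAMP rise after 30 min at 37 °C read by HTRF against a standard curve, scaled between buffer alone (0%) and top control ligand concentration (100%), four-parameter fit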
human GLP1-R = human GLP1-R (Homo sapiens, UniProt P43220); experiment: GLP1-R internalization assay in HEK293 cells; type: cell-based; conditions: for EC50: HEK293 cells expressing SNAP-GLP-1R, read-out: GLP1R Internalization EC50; for Internalization % TOP: normalized to maximum concentration of GLP-1 (100%)
human GLP1-R, sequence (P43220 24-463): as the sequence (P43220 24-463) above

[4] = tested on: Intestinal organoid from Göttingen minipig jejunum tissue, 2D monolayer; experiment: Cell based in vitro permeability (Papp) assay; type: in vitro ADME
Protocol: Intestinal organoid from Göttingen minipig jejunum tissue and its 2D monolayer are generated using the protocol previously described ([…]-Thiele, […].; Wells, J. M., Optimized procedures for generating an enhanced, near physiological 2D culture system from porcine intestinal organoids. […] After 7 days of culture, organoids are dissociated into single cells by TrypLE (GIbco), and the single cell suspension is added in 24-well transparent transwell inserts (0.3 cm^2, Falcon, BD). […] Samples from the basal compartment are collected at 20 min in the presence of C10. Peptide concentrations in the apical and basal compartments are measured by LC/MS, and the apparent permeability coefficient (Papp) is calculated as previously described (Twarog, C.; Liu, K.; O'Brien, P. J.; Dawson, […] head-to-head Caco-2 assay comparison of the mechanisms of action of the intestinal permeation enhancers: SNAC and sodium caprate (C10).

human GcgR = human GcgR (Homo sapiens, UniProt P47871); experiment: Functional cAMP activity in the presence of 1% HSA; type: cell-based; conditions: read-out: cAMP Rel EC50, hGcgR
human GcgR, sequence (P47871 26-477): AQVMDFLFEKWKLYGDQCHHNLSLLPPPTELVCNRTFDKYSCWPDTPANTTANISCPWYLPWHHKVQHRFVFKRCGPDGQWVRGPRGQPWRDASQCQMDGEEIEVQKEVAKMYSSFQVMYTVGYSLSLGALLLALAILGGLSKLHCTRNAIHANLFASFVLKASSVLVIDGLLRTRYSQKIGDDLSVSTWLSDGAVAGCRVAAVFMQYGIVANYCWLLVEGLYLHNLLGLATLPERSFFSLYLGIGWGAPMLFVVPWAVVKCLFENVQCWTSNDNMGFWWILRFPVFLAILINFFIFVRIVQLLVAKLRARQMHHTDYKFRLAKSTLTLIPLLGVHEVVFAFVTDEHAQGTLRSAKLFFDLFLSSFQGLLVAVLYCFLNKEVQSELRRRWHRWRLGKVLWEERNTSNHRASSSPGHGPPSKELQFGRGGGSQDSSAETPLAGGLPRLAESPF

hGcgR = hGcgR (Homo sapiens, UniProt P47871); experiment: Functional cAMP activation in the presence of 0.1% casein (no HSA); type: cell-based; conditions: read-out: Relative cAMP EC50, hGcgR;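 note: intracellular cAMP rise after 30 min at 37 °C, read by HTRF against a cAMP standard curve, scaled from buffer only (0%) to maximal control ligand response (100%)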
hGcgR, sequence (P47871 26-477): as above

hGLP-1R [5] = target: T1, hGLP-1R; experiment: Functional cAMP activity in the presence of 1% HSA; type: cell-based; conditions: read-out: cAMP Rel EC50, hGLP-1R
[6] = in the presence of 0.1% casein (no HSA), geometric mean

Molecule	EC50 (hGLP-1R [1]; [6]) [nM]	EC50 (hGIPR [2]) [nM]	EC50 (hGIPR [3]; [6]) [nM]	EC50 (human GLP1-R) [nM]	Internalization % TOP (human GLP1-R) [%]	Relative Papp (Compared to internal standard) [4]	EC50 (human GcgR) [nM]	EC50 (hGcgR; [6]) [nM]	EC50 (hGLP-1R [5]) [nM]	EC50 (hGLP-1R [1]) [nM]	EC50 (hGIPR [3]) [nM]	EC50 (hGcgR) [nM]
CC[C@H](C)[C@H](NC(=O)[C@H](Cc1ccccc1)NC(=O)[C@H](C)NC(=O)C(C)(C)NC(=O)[C@H](CCC(N)=O)NC(=O)[C@H](C)NC(=O)[C@H](CCCCNC(=O)COCCOCCNC(=O)CC[C@H](NC(=O)CCCCCCCCCCCCCCCCC(=O)O)C(=O)O)NC(=O)[C@H](CCCCN)NC(=O)[C@H](CC(=O)O)NC(=O)[C@H](CC(C)C)NC(=O)[C@](C)(CC(C)C)NC(=O)[C@H](CCCN)NC(=O)[C@H](CO)NC(=O)[C@H](Cc1ccccc1)NC(=O)[C@H](CC(=O)O)NC(=O)[C@H](CO)NC(=O)[C@@H](NC(=O)[C@H](Cc1ccccc1)NC(=O)[C@@H](NC(=O)CNC(=O)[C@H](CCC(N)=O)NC(=O)C(C)(C)NC(=O)[C@@H](N)Cc1ccc(O)cc1)[C@@H](C)O)[C@@H](C)O)C(=O)N[C@@H](CCC(=O)O)C(=O)N[C@@H](Cc1c[nH]c2ccccc12)C(=O)N[C@@H](CC(C)C)C(=O)N[C@@H](CC(C)C)C(=O)N[C@@H](CCC(=O)O)C(=O)NCC(=O)NCC(=O)N1CCC[C@H]1C(=O)N[C@@H](CO)C(=O)N[C@@H](CO)C(=O)NCC(=O)N[C@@H](C)C(=O)N1CCC[C@H]1C(=O)N1CCC[C@H]1C(=O)N1CCC[C@H]1C(=O)N[C@@H](CO)C(=O)NCC(=O)N[C@@H](CCC(=O)O)C(N)=O [Example 119]	3.67	19.7	0.179	73.5	43.4	0.15	839	5.6	387			
CC[C@H](C)[C@H](NC(=O)[C@H](Cc1ccccc1)NC(=O)[C@H](C)NC(=O)C(C)(C)NC(=O)[C@H](CCC(N)=O)NC(=O)[C@H](C)NC(=O)[C@H](CCCCNC(=O)COCCOCCNC(=O)CC[C@H](NC(=O)CCCCCCCCCCCCCCCCC(=O)O)C(=O)O)NC(=O)[C@H](CCCCN)NC(=O)[C@H](CC(=O)O)NC(=O)[C@H](CC(C)C)NC(=O)[C@](C)(CC(C)C)NC(=O)[C@H](CCCN)NC(=O)[C@H](CO)NC(=O)[C@H](Cc1ccccc1)NC(=O)[C@H](CC(=O)O)NC(=O)[C@H](CO)NC(=O)[C@@H](NC(=O)[C@H](Cc1ccccc1)NC(=O)[C@@H](NC(=O)CNC(=O)[C@H](CCC(N)=O)NC(=O)C(C)(C)NC(=O)[C@@H](N)Cc1ccc(O)cc1)[C@@H](C)O)[C@@H](C)O)C(=O)N[C@@H](CCC(=O)O)C(=O)N[C@@H](Cc1ccc(O)cc1)C(=O)N[C@@H](CC(C)C)C(=O)N[C@@H](CC(C)C)C(=O)N[C@@H](CCC(=O)O)C(=O)N[C@H](C)C(=O)NCC(=O)N[C@@H](CCCCNC(C)=O)C(=O)N[C@@H](CO)C(=O)N[C@@H](CO)C(=O)NCC(=O)N[C@@H](C)C(=O)N1CCC[C@H]1C(=O)N1CCC[C@H]1C(=O)N1CCC[C@H]1C(=O)N[C@@H](CO)C(=O)NCC(=O)N[C@@H](CCC(=O)O)C(N)=O [Example 208]	3.72		0.159	55.7	49.6	0.29	578	2.69	336			
CC[C@H](C)[C@H](NC(=O)[C@H](Cc1ccccc1)NC(=O)[C@H](C)NC(=O)C(C)(C)NC(=O)[C@H](CCC(N)=O)NC(=O)[C@H](C)NC(=O)[C@H](CCCCNC(=O)COCCOCCNC(=O)CC[C@H](NC(=O)CCCCCCCCCCCCCCCCC(=O)O)C(=O)O)NC(=O)[C@H](CCCCN)NC(=O)[C@H](CC(=O)O)NC(=O)[C@H](CC(C)C)NC(=O)[C@](C)(CC(C)C)NC(=O)[C@H](CCCN)NC(=O)[C@H](CO)NC(=O)[C@H](Cc1ccccc1)NC(=O)[C@H](CC(=O)O)NC(=O)[C@H](CO)NC(=O)[C@@H](NC(=O)[C@H](Cc1ccccc1)NC(=O)[C@@H](NC(=O)CNC(=O)[C@H](CCC(N)=O)NC(=O)C(C)(C)NC(=O)[C@@H](N)Cc1ccc(O)cc1)[C@@H](C)O)[C@@H](C)O)C(=O)N[C@@H](CCC(=O)O)C(=O)N[C@@H](Cc1c[nH]c2ccccc12)C(=O)N[C@@H](CC(C)C)C(=O)N[C@@H](CC(C)C)C(=O)N[C@@H](CCC(=O)O)C(=O)NCC(=O)NCC(=O)N1CCC[C@H]1C(=O)N[C@@H](CO)C(=O)N[C@@H](CO)C(=O)NCC(=O)N[C@@H](C)C(=O)N1CCC[C@H]1C(=O)N1CCC[C@H]1C(=O)N1CCC[C@H]1C(=O)N[C@@H](Cc1c[nH]cn1)C(=O)NCC(=O)N[C@@H](CO)C(N)=O [Example 249]		22.5	0.173	86.2	34.8	0.04	604	5.55	256			
H-Y[Aib]QGT[αMePhe(2-F)]TSD[4Pal]SILLDKK([γGlu-γGlu-C18 diacid])AQ[Aib]AFIE[αMe4Pal]LEEGGPSSGAPPPSGTE-NH2 [Example 552]		1.67				0.53	289		86.2	0.804	0.0177	2.53
H-Y[Aib]QGT[αMePhe(2-F)]TSD[4Pal]SILLDKK([γGlu-γGlu-C18 diacid])AQ[Aib]AFIE[αMeY]LEEGGPSSGAPPPSGSGE-NH2 [Example 666]		1.39				0.85	224		32.3	0.337	0.0203	2
H-Y[Aib]QGT[αMePhe(2-F)]TSD[4Pal]SI[αMeL]LD[Orn]K([AEEA-γGlu-C18 diacid])AQ[αMe4Pal][Orn]FI[dE][αMeY]LIEGGPSSGEPPPEGE-NH2 [Example 675]		1.16				0.36	207		25	0.254	0.0111	2.15
H-Y[Aib]QGT[αMePhe(2-F)]TSD[4Pal][αMeS]I[αMeL]LD[Orn]K([AEEA-γGlu-C18 diacid])AQ[αMe4Pal]EFI[dE][αMeY]LIEGGPSSGEPPPSGS-NH2 [Example 710]		0.589				0.35	126		28.7	0.274	0.00578	1.52
H-Y[Aib]QGT[αMePhe(2-F)]TSD[4Pal][αMeS]I[αMeL]LD[Orn]K([γGlu-γGlu-C18 diacid])AQ[αMe4Pal]EFI[dE][αMeY]LIEGGPSSGAPPPEGGGE-NH2 [Example 761]		0.635				0.53	162		26.1	0.226	0.00686	1.5
H-Y[Aib]QGT[αMePhe(2-F)]TSD[4Pal][αMeS]I[αMeL]LD[Orn]K([γGlu-γGlu-C18 diacid])AQ[αMe4Pal]EFI[dE][αMeY]LIEGGPSSGAPPPSGGGE-NH2 [Example 743]		0.432				0.56	133		21.2	0.259	0.00694	1.49
H-Y[Aib]QGT[αMePhe(2-F)]TSD[4Pal][αMeS]I[αMeL]LD[Orn]K([γGlu-γGlu-C18 diacid])AQ[αMe4Pal]EFI[dE][αMeY]LVEGGPSSGEPPPSGS-NH2 [Example 737]		0.498				0.69	122		22.3	0.285	0.00804	1.34
Y[Aib]QGTFTSDFS[Orn][αMeL]LDKK([AEEA-γGlu-C18 diacid])AQ[Aib]AFIEYLLE[dA]GPSSGEPPPSGE-NH2 [Example 135]	3.3	23.4	0.246			0.04	557	2.53	472			
